# Tested on: UTI symptoms
# Experiment: Treatment of UTI symptoms in a patient (case reports)
# Format: in vivo, human
# Details: recurrent UTI episodes about 48 hours after sex, 1 tablet twice daily for five days
# Protocol: A patient had been experiencing urinary tract infections since 1999. Episodes were very painful and invariably occurred about 48 hours after having sex. […] This pattern persisted for 6 years.
# During an episode of UTI symptoms (urge to urinate; severe burning with urination; blood in urine), 100 mg MOS was administered to a patient (weighing approximately 50 kg) as a tablet (BioMOS® tablets, Alltech)-1 tablet before and after sex, plus three tablets per day.
# Beginning during a symptom-free period, 100 mg MOS was administered to a patient (weighing approximately 50 kg) as a tablet (BioMOS® tablets, Alltech), once per day plus one pill with sex.
# During a symptom-free period, 500 mg of MOS was administered as a capsule (capsules prepared from bulk CitriStim™, Archer Daniels Midland Alliance Nutrition, Inc., Quincy, Ill.; 1 or 2 capsules daily). […] Two capsules (CitriStim) were administered (three hours apart), followed 2 hours later by 100 mg MOS in tablet form (BioMOS® tablets, Alltech). […] Two MOS tablets were administered that morning (4 hours apart). In the late afternoon, a CitriStim capsule was administered, and one capsule was administered twice the following day.
row,Compound,Relief of UTI symptoms
1,"O=C(O)c1cn(C2CC2)c2cc(N3CCNCC3)c(F)cc2c1=O [Cipro®, ciprofloxacin]",quickly relieve symptoms
2,trimethoprim-sulfamethoxazole [Bactrin DS®],quickly relieve symptoms
